Data reported in article PMC12123460 (ACS Central Science, 2025).
Entries after “also recorded” stand apart in the source; their conditions may differ. Read-outs that look alike come from different tables or passages of the source.

Experiments:
human MOR = human MOR (Homo sapiens, UniProt P35372); experiment: Live cell GloSensor cAMP assay, antagonist mode, MOR-expressing HEK293T cells; conditions: 10 μM forskolin, DAMGO at EC80
murine KOR = murine KOR (Mus musculus, UniProt P33534); experiment: Live cell GloSensor cAMP assay, antagonist mode, KOR-expressing HEK293T cells; conditions: for KOR Signaling: GloSensor cAMP, HEK293T, 10 μM forskolin, salvinorin A at EC80
[1] = target: full length human μ opioid receptor (MOR) (Homo sapiens, UniProt P35372); experiment: 3H-naltrexone radioligand competition binding, MOR membranes
[2] = target: T1, murine κ opioid receptor (KOR) (Mus musculus, UniProt P33534); experiment: 3H-naltrexone radioligand competition binding, KOR membranes
C56BL/6 mice [3] = tested on: C56BL/6 mice
C56BL/6 mice [4] = experiment: Conditioned place aversion in morphine tolerant mice
C56BL/6 mice [5] = experiment: Opioid withdrawal symptoms assay in morphine tolerant mice; conditions: 1 h after morphine 20 mg/kg, naloxone 10 mg/kg, #020_E1 30 mg/kg
[6] = target: T1, murine κ opioid receptor (KOR); experiment: biochemical
[7] = read-out: MOR Ki estimate (†), calculated from the Cheng–Prusoff equation based on a single point at 33 μM ligand
[8] = read-out: KOR Ki binding affinity, 3H-naltrexone displacement, mean from three dose response experiments
[9] = read-out: MOR Ki binding affinity, 3H-naltrexone displacement, mean from three dose response experiments

Q: Which “MOR Signaling” value (human MOR) does the source give for COC(=O)C1CC2(C)C(c3cccc(O)c3)=C(C)C1N(C)C2C (stereo not drawn) [#019_E2] here?
A: The value was “Antagonist”.

Q: What about the “KOR Signaling” value (murine KOR) of the same compound?
A: Its value is “Inverse Agonist”.

Q: How did the Ki [1, 7] turn out when CCN1CC(N2[C@@H]3C=C(c4ccccc4O)[C@@](C)(C[C@H]3C(=O)OC)[C@@H]2C)C1 (racemic) [(±)-#05] was run?
A: The Ki was 16000 nM.

Q: And the Ki [2, 8]?
A: The Ki was 8000 nM.

Q: CC1=C(c2cccc(O)c2)C2(C)CCC1N(CCc1ccccc1)C2C (stereo not drawn) [#030_E2] was tested. Which “MOR Signaling” value (human MOR) did it give?
A: The value was “Antagonist”.

Q: And the “KOR Signaling” value (murine KOR)?
A: The value was “Inverse Agonist”.

Q: With CCCCC1=C[C@@H]2[C@H](C(=O)OC)C[C@@]1(C)[C@H](C)N2C[C@@H]1CCO1 (racemic) [(±)-#09] as the compound, how does the Ki [1, 7] read?
A: The Ki was 14000 nM.

Q: What about the Ki ([2]; read-out: KOR Ki estimate (†), calculated from the Cheng–Prusoff equation based on a single point at 33 μM ligand) of the same compound?
A: Its Ki is 12000 nM.

Q: For 3H-naltrexone [reference compound], which Kd ([1]; read-out: Kd of the radioligand in MOR membrane preparation, saturation experiments, nonspecific binding with 33 μM unlabeled naloxone) is on record?
A: Its Kd is 1.97 nM.

Q: And the Kd ([2]; read-out: Kd of the radioligand in KOR membrane preparation, saturation experiments, nonspecific binding with 33 μM unlabeled naloxone)?
A: The Kd was 2.71 nM.

Q: How did the Ki [1, 9] turn out when COC(=O)[C@@H]1C[C@]2(C)C(c3cc(F)cc(F)c3)=C[C@H]1N(C1CN(CCO)C1)[C@H]2C (racemic) [(±)-#57] was run?
A: Its Ki is 5000 nM.

Q: What about the Ki [2, 8] of the same compound?
A: Its Ki is 1100 nM.

Q: Which Tail flick latency (C56BL/6 mice [3]; 20 mg/kg i.p.) does the source give for CN1CC[C@]23c4c5ccc(O)c4O[C@H]2[C@@H](O)C=C[C@H]3[C@H]1C5 [morphine] here?
A: The Tail flick latency was “significantly increased tail flick latency”.

Q: For COC(=O)[C@@H]1C[C@]2(C)C(C)=C(C)[C@H]1N(Cc1cnn(CC(F)F)c1)[C@H]2C (racemic) [(±)-#56], which Ki [1, 9] is on record?
A: The Ki was 8800 nM.

Q: For C=CCN1CC[C@]23c4c5ccc(O)c4O[C@H]2C(=O)CC[C@@]3(O)[C@H]1C5 [naloxone], which “i.p. dose required to return tail flick latency to baseline levels” value (C56BL/6 mice [3]; blocking of 20mg/kg morphine induced analgesia, dose response) is on record?
A: Its value is 10 mg/kg.

Q: And the “Time spent in the antagonist-paired chamber pre- vs post-conditioning” value (C56BL/6 mice [4]; morphine tolerant mice, withdrawal precipitated by the antagonist)?
A: The value was “marked decrease in time spent in the antagonist-paired chamber; also recorded: significantly less time in the chamber”.

Q: What about the CPA score (C56BL/6 mice [4]; test minus pretest time in drug-paired compartment) of the same compound?
A: Its CPA score is “avoided the treatment compartment to a greater extent”.

Q: What about the “Precipitated opioid withdrawal symptoms (jumps, wet-dog shakes, rearing, forepaw shakes)” value (C56BL/6 mice [5]) of the same compound?
A: Its value is “induced behaviors consistent with aversive withdrawal”.

Q: How did the “MOR Signaling” value (human MOR) turn out when COC(=O)C1CC2(C)C(c3cccc(O)c3)=CC1N(CCOc1c(C)cccc1C)C2C (stereo not drawn) [#017_E2] was run?
A: Its value is “Antagonist”.

Q: What about the “KOR Signaling” value (murine KOR) of the same compound?
A: Its value is “Antagonist”.

Q: How did the Ki [1, 9] turn out when CCN1[C@@H]2C=C(C)[C@@](C)(C[C@H]2C(=O)OC)[C@@H]1C (racemic) [(±)-#001] was run?
A: Its Ki is 7100 nM.

Q: With COC(=O)[C@@H]1C[C@]2(C)C(c3ccc(O)c(OC)c3)=C[C@H]1N(CCN)[C@H]2C [(+)-#33] as the compound, how does the Ki [1, 9] read?
A: Its Ki is 980 nM.

Q: What about the Ki [2, 8] of the same compound?
A: The Ki was 1200 nM.

Q: What does the source list for CCn1cc(CN2C3C(C)=C(c4cccc(O)c4)C(C)(CC3C(=O)OC)C2C)cn1 (stereo not drawn) [#031_E2]?
A: MOR Signaling (human MOR): Antagonist; KOR Signaling (murine KOR): Inverse Agonist

Q: Which results are given for CCn1cc(CN2C3C=C(c4cccc(O)c4)C(C)(CC3C(=O)OC)C2C)cn1 (stereo not drawn) [#020_E2]?
A: Ki [6]: 1.1 nM; MOR Signaling (human MOR): Antagonist; EC50 (murine KOR): 380 nM; KOR Signaling (murine KOR): Antagonist

Q: COC(=O)C1CC2(C)C(c3ccco3)=CC1N(C(C)CN1CCCC1)C2C (racemic) [(±)-#11] was tested. Which Ki [2, 8] did it give?
A: The Ki was 400 nM.
